Assay results reported in US20020028807A1, “Non-nucleoside reverse transcriptase inhibitors” (priority 2000, published 2002).

Legend:
HIV-1 RT G190A = target: T1, HIV-1 RT G190A (Human immunodeficiency virus type 1 group M subtype B, UniProt P03366, G789A); experiment: Reverse transcriptase (RT) assay, G190A mutant; assay type: biochemical
T1 construct: an HIV RT clone pKRT2 containing only the RT p66 gene regulated by the lac operon/trc promoter; made in house; host or cells: E. coli JM109, vector pKK233-2
Source text: (§1) Among the enzymes for which Human Immunodeficiency Virus (HIV-1) encodes is a reverse transcriptase (1), so-named because it transcribes a DNA copy from an RNA template. This activity can be quantitatively measured in a cell-free enzyme assay and is based upon the observation that reverse transcriptase is able to use a synthetic template poly r(C) primed with a biotinylated oligo d(G) to transcribe a radio-labelled DNA strand utilising 3H-dGTP as a substrate. The assay described below utilises the wild-type enzyme (which is the predominant form of the enzyme observed in patients infected with HIV-1) and can also be used with mutant RT enzymes (for example, Y181C, prepared by site-directed mutagenesis in which the tyrosine residue at codon 181 has been replaced by a cysteine residue) in analogous assay conditions. This assay allows compounds to be evaluated for their effectiveness at inhibiting the mutant enzymes.
(§2) Some HIV-1 IIIB clone BH10 RT mutants were provided by Dr. C.-K. Shih (Boehringer Ingelheim Pharmaceutials Inc., U.S.A.) in the vector pKK233-2 (Pharmacia). Briefly an HIV RT clone pKRT2 containing only the RT p66 gene regulated by the lac operon/trc promoter was obtained from Dr. W. Summers (Yale University) (2). A variety of specific amino acid substitutions were introduced into the wild-type RT gene by site-directed mutagenesis. RT clones were subcloned into the pKK233-2 bacterial expression vector. Clones provided included wild-type, Val106Ala, Tyr181Cys, Tyr188Cys, Tyr188Leu, Gly190Ala and Pro236Leu. Others were made in-house by site-directed mutagenesis of the pKK233-2 RT clones including Lys103Asn, Lys103Asn/Tyr181Cys, Lys103Asn/Leu100Ile, Lys103Asn/Pro225His, and Lys103Asn/Val108Ile.
(§3) Purification of recombinant reverse transcriptase was performed using a combination of methods previously described (3). A single colony from a fresh plate of transformed JM109 cells was used to initiate growth of a pre-culture grown o/n at 37° C. Two liters of growth medium were inoculated with this pre-culture. At OD600˜1.5 (5-6 h at 37° C.), RT gene expression was induced with IPTG (1 mM final), and the fermentation was continued for a few more hours at 37° C. After centrifugation, supernatants were discarded while cell pellets were pooled and stored at −80° C. until purification. Cells were thawed at 4° C. overnight and suspended in lysis buffer (MES 50 mM pH 6, EDTA 1 mM, 10% v/v glyerol, 0.02% w/v OBG, 0.02% w/v sodium azide). Lysozyme was added and the mixture was incubated on ice for 40 minutes. After homogenization using a bounce in presence of lysozyme and sonication, the cells were centrifuged for 30 minutes. Supernatant (S1) was saved and stored at 4° C. The centrifuged pellet was resuspended in extraction buffer (MES 50 mM pH 6, KPO4 50 mM pH 6, KCl 100 mM, 10% v/v glycerol, 0.02% w/v OBG, 0.02% w/v sodium axide) and stirred for 30 minutes at 4° C. This second mixture was centrifuged again and the supernatant (S2) was saved. The above procedure was repeated 2 more times saving supernatants S3 and S4 and one last extraction was performed overnight (S5). Polymin P (0.005% final) was added to the combined supernatants to remove nucleic acids. This solution was stirred for 75 minutes at 4° C. and centrifuged for 1 h. The supernatant (SS1) was precipitated on ice with 20% w/v ammonium sulfate and stirred for 1 h at 4° C. The mixture was then centrifuged and the resulting supernatant (SS2) was precipitated with additional 40% w/v ammonium sulfate (60% total), stirred for 1 h and centrifuged again. The final pellet (P1) was stored overnight at 4° C. before undergoing purification the following day. All steps of the purification were performed at 4° C. unless otherwise stated.
(§4) Pellet (P1) was resuspended into MES 50 mM pH 6, KPO4 10 mM pH 6, KCl 100 mM, 10% v/v glycerol, 0.02% w/v OBG, 0.02% w/v sodium azide. The suspension was dialysis against the same buffer overnight using 12-14 kD MWCO dialysis tubing. […]

HIV-1 RT Y188C = target: T2, HIV-1 RT Y188C (Human immunodeficiency virus type 1 group M subtype B, UniProt P03366, Y787C); experiment: Reverse transcriptase (RT) assay, Y188C mutant; assay type: biochemical
T2 construct: an HIV RT clone pKRT2 containing only the RT p66 gene regulated by the lac operon/trc promoter; made in house; host or cells: E. coli JM109, vector pKK233-2
Source text: as §1, §2, §3, §4

HIV-1 RT K103N/Y181C = target: T3, HIV-1 RT K103N/Y181C (Human immunodeficiency virus type 1 group M subtype B, UniProt P03366, K702N/Y780C); experiment: Reverse transcriptase (RT) assay, K103N/Y181C mutant; assay type: biochemical
T3 construct: an HIV RT clone pKRT2 containing only the RT p66 gene regulated by the lac operon/trc promoter; made in house; host or cells: E. coli JM109, vector pKK233-2
Source text: as §1, §2, §3, §4

HIV-1 RT Y188L = target: T4, HIV-1 RT Y188L (Human immunodeficiency virus type 1 group M subtype B, UniProt P03366, Y787L); experiment: Reverse transcriptase (RT) assay, Y188L mutant; assay type: biochemical
T4 construct: an HIV RT clone pKRT2 containing only the RT p66 gene regulated by the lac operon/trc promoter; made in house; host or cells: E. coli JM109, vector pKK233-2
Source text: as §1, §2, §3, §4

HIV-1 RT K103N/V108I = target: T5, HIV-1 RT K103N/V108I (Human immunodeficiency virus type 1 group M subtype B, UniProt P03366, K702N/V707I); experiment: Reverse transcriptase (RT) assay, K103N/V108I mutant; assay type: biochemical
T5 construct: an HIV RT clone pKRT2 containing only the RT p66 gene regulated by the lac operon/trc promoter; made in house; host or cells: E. coli JM109, vector pKK233-2
Source text: as §1, §2, §3, §4

HIV-1 RT Y181C = target: T6, HIV-1 RT Y181C (Human immunodeficiency virus type 1 group M subtype B, UniProt P03366, Y780C); experiment: Reverse transcriptase (RT) assay, Y181C mutant; assay type: biochemical
T6 construct: an HIV RT clone pKRT2 containing only the RT p66 gene regulated by the lac operon/trc promoter; made in house; host or cells: E. coli JM109, vector pKK233-2
Source text: as §1, §2, §3, §4

HIV-1 RT wild-type (WT) = target: T7, HIV-1 RT wild-type (WT) (Human immunodeficiency virus type 1 group M subtype B, UniProt P03366); experiment: Reverse transcriptase (RT) assay, wild-type enzyme; assay type: biochemical
T7 construct: an HIV RT clone pKRT2 containing only the RT p66 gene regulated by the lac operon/trc promoter; made in house; host or cells: E. coli JM109, vector pKK233-2
Source text: as §1, §2, §3, §4

HIV-1 RT K103N = target: T8, HIV-1 RT K103N (Human immunodeficiency virus type 1 group M subtype B, UniProt P03366, K702N); experiment: Reverse transcriptase (RT) assay, K103N mutant; assay type: biochemical
T8 construct: an HIV RT clone pKRT2 containing only the RT p66 gene regulated by the lac operon/trc promoter; made in house; host or cells: E. coli JM109, vector pKK233-2
Source text: as §1, §2, §3, §4

[1] = system: HIV coding for wild-type reverse transcriptase (WT RT); experiment: ELISA (p24) assay of HIV replication in C8166 cell culture, wild-type RT virus; assay type: cell-based, HIV-1; conditions: Human immunodeficiency virus 1, C8166, 72 h, read-out: EC50 WT RT
Description: Compounds of the invention were tested for their ability to inhibit HIV replication in cell culture in a 96-well plate assay. Complete RPMI 1640, consisting of RPMI 1640+10% fetal bovine serum, 10 μg/ml gentamycin and 10 μM β-mercaptoethanol was used for dilution of the compound as well as cell growth medium. The T lymphocyte cell line C8166 was infected at a multiplicity of infection of 0.001 with viruses coding for wild-type and mutant reverse transcriptase. Cells were then incubated for three days in the presence of serial dilutions of the compounds of the invention. The supernatant was pooled from eight replica wells and the concentration of extracellular p24 was determined using a commercially available HIV-1 p24 antigen assay kit (Beckman-Coulter®). The level of inhibition (% inhibition) was calculated with the following equation: [formula]

HIV-1 RT K103N/P225H = target: T9, HIV-1 RT K103N/P225H (Human immunodeficiency virus type 1 group M subtype B, UniProt P03366, K702N/P824H); experiment: Reverse transcriptase (RT) assay, K103N/P225H mutant; assay type: biochemical
T9 construct: an HIV RT clone pKRT2 containing only the RT p66 gene regulated by the lac operon/trc promoter; made in house; host or cells: E. coli JM109, vector pKK233-2
Source text: as §1, §2, §3, §4

HIV-1 RT K103N/L100I = target: T10, HIV-1 RT K103N/L100I (Human immunodeficiency virus type 1 group M subtype B, UniProt P03366, K702N/L699I); experiment: Reverse transcriptase (RT) assay, K103N/L100I mutant; assay type: biochemical
T10 construct: an HIV RT clone pKRT2 containing only the RT p66 gene regulated by the lac operon/trc promoter; made in house; host or cells: E. coli JM109, vector pKK233-2
Source text: as §1, §2, §3, §4

HIV-1 RT V106A = target: T11, HIV-1 RT V106A (Human immunodeficiency virus type 1 group M subtype B, UniProt P03366, V705A); experiment: Reverse transcriptase (RT) assay, V106A mutant; assay type: biochemical
T11 construct: an HIV RT clone pKRT2 containing only the RT p66 gene regulated by the lac operon/trc promoter; made in house; host or cells: E. coli JM109, vector pKK233-2
Source text: as §1, §2, §3, §4

HIV-1 RT P23L = target: T12, HIV-1 RT P23L (Human immunodeficiency virus type 1 group M subtype B, UniProt P03366, P835L); experiment: Reverse transcriptase (RT) assay, P23L mutant; assay type: biochemical
T12 construct: an HIV RT clone pKRT2 containing only the RT p66 gene regulated by the lac operon/trc promoter; made in house; host or cells: E. coli JM109, vector pKK233-2
Source text: as §1, §2
Purification of recombinant reverse transcriptase was performed using a combination of methods previously described (3). A single colony from a fresh plate of transformed JM109 cells was used to initiate growth of a pre-culture grown o/n at 37° C. Two liters of growth medium were inoculated with this pre-culture. At OD600˜1.5 (5-6 h at 37° C.), RT gene expression was induced with IPTG (1 mM final), and the fermentation was continued for a few more hours at 37° C. After centrifugation, supernatants were discarded while cell pellets were pooled and stored at −80° C. until purification. Cells were thawed at 4° C. overnight and suspended in lysis buffer (MES 50 mM pH 6, EDTA 1 mM, 10% v/v glyerol, 0.02% w/v OBG, 0.02% w/v sodium azide). Lysozyme was added and the mixture was incubated on ice for 40 minutes. After homogenization using a bounce in presence of lysozyme and sonication, the cells were centrifuged for 30 minutes. Supernatant (S1) was saved and stored at 4° C. […]

CCN1c2ncc(CCOc3ccnc4ccccc34)cc2C(=O)N(C)c2ccc(Cl)nc21 [compound 2, 2-Chloro-5,11-dihydro-11-ethyl-5-methyl-8-{2-(4-quinolinyloxy)ethyl}-6H-dipyrido[3,2-b:2′,3′-e][1,4]diazepin-6-one]
IC50 (HIV-1 RT G190A): 14.5 nM
IC50 (HIV-1 RT Y188C): 7.1 nM
IC50 (HIV-1 RT K103N/Y181C): 24.5 nM
IC50 (HIV-1 RT Y188L): 258 nM
IC50 (HIV-1 RT K103N/V108I): 31 nM
IC50 (HIV-1 RT Y181C): 25 nM
IC50 (HIV-1 RT wild-type (WT)): 5.5 nM
IC50 (HIV-1 RT K103N): 28.5 nM
EC50 [1]: 2.2 nM
IC50 (HIV-1 RT K103N/P225H): 27 nM
IC50 (HIV-1 RT K103N/L100I): 46 nM
IC50 (HIV-1 RT V106A): 148 nM
IC50 (HIV-1 RT P23L): 50.5 nM
